Values quoted from earlier work as cited in patent US6110491A, “Compound-loaded liposomes and methods for their preparation” (Hermes Biosciences, Inc., priority 1997, dated 2000).
≈ marks a conversion by molar mass, not a printed value. Where two headings read alike, the source gives them in different places.

Conditions: cited from earlier work; for pH-dependent solubility: 37° C.

**Q.** Which solubility in water (alkaline pH) does the source give for `Nc1nc(O)c2ncn(COC(CO)CO)c2n1` [gancyclovir] here?
**A.** > 100 mg/mL

**Q.** What about the solubility in water (pH 7.4) of the same compound?
**A.** 2.5 mg/mL (≈ 9.79 mM)

**Q.** What does the source list for `CCn1cc(C(=O)O)c(=O)c2cc(F)c(N3CCNCC3)cc21` [norfloxacin]?
**A.** pH-dependent solubility (pH 6.5): 2.8 mg/ml; pH-dependent solubility (pH 7.0): 1.5 mg/ml; pH-dependent solubility (pH 8.0): 1.9 mg/ml; pH-dependent solubility (pH <5.5): > 40 mg/ml

**Q.** With `CC(C)Cc1ccc(C(C)C(=O)O)cc1` (centres unmarked) [ibuprofen] as the compound, how does the “solubility (in words)” value (alkaline pH) read?
**A.** soluble at alkaline pH

**Q.** What about the “solubility (in words)” value (neutral pH) of the same compound?
**A.** poorly soluble at neutral pH

**Q.** Which pH dependent solubility (pH 4.1) does the source give for `Nc1cc(-c2ccncc2)c[nH]c1=O` [amrinone] here?
**A.** 25 mg/ml

**Q.** And the pH dependent solubility (pH 6)?
**A.** 0.9 mg/ml

**Q.** What about the pH dependent solubility (pH 8) of the same compound?
**A.** 0.9 mg/ml
